Measurements: patent US20240016781A1, “TREATMENT OF KRAS MUTANT CANCERS” (MEI Pharma, Inc., priority 2020, published 2024)

How the values were obtained:
[1] = PK of voruciclib, 2 weeks of daily dosing followed by 1 week without dosing in a 21-day cycle (Table 3); format: in vivo, human; conditions: human, plasma, oral, 850 mg, Day 13, 2 weeks daily dosing/1 week off
Excerpt: (§1) Voruciclib half life is designated as t½ in the tables (expressed in hours).
(§2) Voruciclib volume of distribution is designated as Vz/F (expressed in liters).

[2] = PK of voruciclib, daily dosing continuously (Table 4); format: in vivo; conditions: human, plasma, oral; for Vd/F: read-out: Vz/F; for half-life: read-out: t½ (converted); for Tmax: median
Excerpt: as §1, §2

[3] = 75 mg, Day 1, daily dosing continuously, mean
[4] = 75 mg, Day 15, daily dosing continuously, mean
[5] = 150 mg, Day 1, daily dosing continuously, mean
[6] = 150 mg, Day 15, daily dosing continuously, n = 1
[7] = 250 mg, Day 1, daily dosing continuously, mean
[8] = 250 mg, Day 15, daily dosing continuously, mean
[9] = 350 mg, Day 1, daily dosing continuously, mean
[10] = 350 mg, Day 15, daily dosing continuously, mean
[11] = 500 mg, Day 1, daily dosing continuously, mean
[12] = 500 mg, Day 15, daily dosing continuously, mean

Which results are given for `CN1CC[C@@H](c2c(O)cc(O)c3c(=O)cc(-c4ccc(C(F)(F)F)cc4Cl)oc23)[C@@H]1CO` [Voruciclib, (+)-trans-2-(2-Chloro-4-trifluoromethylphenyl)-5,7-dihydroxy-8-(2-hydroxymethyl-1-methylpyrrolidin-3-yl)-chromen-4-one]?
half-life ([1]; mean): 22.4 h; AUC(0-t) ([1]; mean, read-out: AUC0-24): 83900 ng·h/mL; AUC(0-t) ([1]; mean, read-out: AUC0-t): 83900 ng·h/mL; Vd/F ([1]; mean, read-out: Vz/F): 315 L; Tmax ([1]; median): 5 h; AUC(0-inf) [2, 3]: 3420 ng·h/mL; Cmax [2, 3]: 125 ng/mL; AUC(0-t) ([2]; 75 mg, Day 1, daily dosing continuously, mean, read-out: AUC0-24): 1730 ng·h/mL; AUC(0-t) ([2]; 75 mg, Day 1, daily dosing continuously, mean, read-out: AUC0-t): 1730 ng·h/mL; Vd/F [2, 3]: 860 L; half-life [2, 3]: 21.8 h; Tmax ([2]; 75 mg, Day 1, daily dosing continuously): 4 h; AUC(0-inf) [2, 4]: 27200 ng·h/mL; Cmax [2, 4]: 331 ng/mL; AUC(0-t) ([2]; 75 mg, Day 15, daily dosing continuously, mean, read-out: AUC0-24): 5570 ng·h/mL; AUC(0-t) ([2]; 75 mg, Day 15, daily dosing continuously, mean, read-out: AUC0-t): 5570 ng·h/mL; Vd/F [2, 4]: 982 L; half-life [2, 4]: 359 h; Tmax ([2]; 75 mg, Day 15, daily dosing continuously): 2 h; AUC(0-inf) [2, 5]: 15600 ng·h/mL; Cmax [2, 5]: 258 ng/mL; AUC(0-t) ([2]; 150 mg, Day 1, daily dosing continuously, mean, read-out: AUC0-24): 4850 ng·h/mL; AUC(0-t) ([2]; 150 mg, Day 1, daily dosing continuously, mean, read-out: AUC0-t): 4850 ng·h/mL; Vd/F [2, 5]: 579 L; half-life [2, 5]: 39.6 h; Tmax ([2]; 150 mg, Day 1, daily dosing continuously): 6 h; Cmax ([2]; 150 mg, Day 15, daily dosing continuously, mean): 755 ng/mL; AUC(0-t) ([2]; 150 mg, Day 15, daily dosing continuously, mean, read-out: AUC0-24): 16600 ng·h/mL; AUC(0-t) ([2]; 150 mg, Day 15, daily dosing continuously, mean, read-out: AUC0-t): 16600 ng·h/mL; Tmax ([2]; 150 mg, Day 15, daily dosing continuously): 6 h; AUC(0-inf) [2, 6]: 164000 ng·h/mL; Vd/F [2, 6]: 174 L; half-life [2, 6]: 132 h; AUC(0-inf) [2, 7]: 16400 ng·h/mL; Cmax [2, 7]: 472 ng/mL; AUC(0-t) ([2]; 250 mg, Day 1, daily dosing continuously, mean, read-out: AUC0-24): 6110 ng·h/mL; AUC(0-t) ([2]; 250 mg, Day 1, daily dosing continuously, mean, read-out: AUC0-t): 6110 ng·h/mL; Vd/F [2, 7]: 766 L; half-life [2, 7]: 34.4 h; Tmax ([2]; 250 mg, Day 1, daily dosing continuously): 4 h; AUC(0-inf) [2, 8]: 54500 ng·h/mL; Cmax [2, 8]: 1050 ng/mL; AUC(0-t) ([2]; 250 mg, Day 15, daily dosing continuously, mean, read-out: AUC0-24): 18500 ng·h/mL; AUC(0-t) ([2]; 250 mg, Day 15, daily dosing continuously, mean, read-out: AUC0-t): 18500 ng·h/mL; Vd/F [2, 8]: 259 L; half-life [2, 8]: 38.8 h; Tmax ([2]; 250 mg, Day 15, daily dosing continuously): 4 h; AUC(0-inf) [2, 9]: 134000 ng·h/mL; Cmax [2, 9]: 623 ng/mL; AUC(0-t) ([2]; 350 mg, Day 1, daily dosing continuously, mean, read-out: AUC0-24): 10400 ng·h/mL; AUC(0-t) ([2]; 350 mg, Day 1, daily dosing continuously, mean, read-out: AUC0-t): 10400 ng·h/mL; Vd/F [2, 9]: 155 L; half-life [2, 9]: 129 h; Tmax ([2]; 350 mg, Day 1, daily dosing continuously): 6 h; AUC(0-inf) [2, 10]: 164000 ng·h/mL; Cmax [2, 10]: 1490 ng/mL; AUC(0-t) ([2]; 350 mg, Day 15, daily dosing continuously, mean, read-out: AUC0-24): 26700 ng·h/mL; AUC(0-t) ([2]; 350 mg, Day 15, daily dosing continuously, mean, read-out: AUC0-t): 26700 ng·h/mL; Vd/F [2, 10]: 77.6 L; half-life [2, 10]: 72.5 h; Tmax ([2]; 350 mg, Day 15, daily dosing continuously): 4 h; AUC(0-inf) [2, 11]: 41000 ng·h/mL; Cmax [2, 11]: 1140 ng/mL; AUC(0-t) ([2]; 500 mg, Day 1, daily dosing continuously, mean, read-out: AUC0-24): 16400 ng·h/mL; AUC(0-t) ([2]; 500 mg, Day 1, daily dosing continuously, mean, read-out: AUC0-t): 16400 ng·h/mL; Vd/F [2, 11]: 72.5 L; half-life [2, 11]: 24.8 h; Tmax ([2]; 500 mg, Day 1, daily dosing continuously): 6 h; AUC(0-inf) [2, 12]: 108000 ng·h/mL; Cmax [2, 12]: 2250 ng/mL; AUC(0-t) ([2]; 500 mg, Day 15, daily dosing continuously, mean, read-out: AUC0-24): 40500 ng·h/mL; AUC(0-t) ([2]; 500 mg, Day 15, daily dosing continuously, mean, read-out: AUC0-t): 40500 ng·h/mL; Vd/F [2, 12]: 51 L; half-life [2, 12]: 42.4 h; Tmax ([2]; 500 mg, Day 15, daily dosing continuously): 2 h
